Among the data in patent EP0320002A1, “Inhalant” (KYORIN SEIYAKU KABUSHIKI KAISHA, priority 1987, dated 1989) are solubility values, retold here.

The data set is described as follows: solubility of ibudilast in water. The format is physicochemical.

In brackets after ≈: the same amount, converted by molar mass.

`CC(C)C(=O)c1c(C(C)C)nn2ccccc12` [ibudilast, 3-isobutyryl-2-isopropylpyrazolo[1,5-a]pyridine] registered a solubility of 150 µg/mL (≈ 651 µM).

One may read the solubility as how much of the substance goes into solution per volume. Low readings indicate a poorly soluble substance, high ones a readily soluble substance.
